Experimental data: PubChem BioAssay (NCI)
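Cultured in 96-well plates, cells were exposed to test compound for 48 hours across five concentrations. TGI marks complete inhibition of growth.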

Assays:
Assay in all cases: NCI tumour cell line growth inhibition, 48 h
SR leukemia = system: SR leukemia
LOX IMVI melanoma = system: LOX IMVI melanoma
T-47D breast = system: T-47D breast
RPMI-8226 leukemia = system: RPMI-8226 leukemia
NCI/ADR-RES ovarian = system: NCI/ADR-RES ovarian
MCF7 breast = system: MCF7 breast
SN12C renal = system: SN12C renal
U251 CNS = system: U251 CNS
UO-31 renal = system: UO-31 renal
A498 renal = system: A498 renal
KM12 colon = system: KM12 colon
M14 melanoma = system: M14 melanoma
NCI-H23 lung = system: NCI-H23 lung
HS 578T breast = system: HS 578T breast
OVCAR-8 ovarian = system: OVCAR-8 ovarian
OVCAR-5 ovarian = system: OVCAR-5 ovarian
UACC-257 melanoma = system: UACC-257 melanoma
MDA-N = system: MDA-N
A549 NSCLC = system: A549 NSCLC
HOP-92 NSCLC = system: HOP-92 NSCLC
HCC-2998 colon = system: HCC-2998 colon
786-0 renal = system: 786-0 renal
OVCAR-3 ovarian = system: OVCAR-3 ovarian
NCI-H460 lung = system: NCI-H460 lung
HT29 colon = system: HT29 colon
COLO 205 colon = system: COLO 205 colon
PC-3 prostate = system: PC-3 prostate
SK-MEL-5 melanoma = system: SK-MEL-5 melanoma
CAKI-1 renal = system: CAKI-1 renal
HL-60(TB) leukemia = system: HL-60(TB) leukemia
HCT-15 colon = system: HCT-15 colon
NCI-H226 lung = system: NCI-H226 lung
SF-268 CNS = system: SF-268 CNS
SNB-75 CNS = system: SNB-75 CNS
OVCAR-4 ovarian = system: OVCAR-4 ovarian
SK-MEL-28 melanoma = system: SK-MEL-28 melanoma
K-562 leukemia = system: K-562 leukemia
SF-539 CNS = system: SF-539 CNS
MOLT-4 leukemia = system: MOLT-4 leukemia
HCT-116 colon = system: HCT-116 colon
SW-620 colon = system: SW-620 colon
SK-MEL-2 melanoma = system: SK-MEL-2 melanoma
ACHN renal = system: ACHN renal
SK-OV-3 ovarian = system: SK-OV-3 ovarian
MDA-MB-231 breast = system: MDA-MB-231 breast
BT-549 breast = system: BT-549 breast
RXF 393 renal = system: RXF 393 renal
SF-295 CNS = system: SF-295 CNS
DU-145 prostate = system: DU-145 prostate
MDA-MB-435 = system: MDA-MB-435
UACC-62 melanoma = system: UACC-62 melanoma
SNB-19 CNS = system: SNB-19 CNS
IGROV1 ovarian = system: IGROV1 ovarian
EKVX NSCLC = system: EKVX NSCLC
HOP-62 NSCLC = system: HOP-62 NSCLC
NCI-H522 lung = system: NCI-H522 lung
TK-10 renal = system: TK-10 renal
MALME-3M melanoma = system: MALME-3M melanoma

Structure (SMILES): O=C1NC(=O)C(CCC(=O)c2cccc3ccccc23)C(=O)N1
- TGI (SR leukemia): > 100 µM
- TGI (LOX IMVI melanoma): > 100 µM
- TGI (T-47D breast): > 100 µM
- TGI (RPMI-8226 leukemia): > 100 µM
- TGI (NCI/ADR-RES ovarian): > 100 µM
- TGI (MCF7 breast): > 100 µM
- TGI (SN12C renal): > 100 µM
- TGI (U251 CNS): > 100 µM
- TGI (UO-31 renal): > 100 µM
- TGI (A498 renal): > 100 µM
- TGI (KM12 colon): > 100 µM
- TGI (M14 melanoma): > 100 µM
- TGI (NCI-H23 lung): > 100 µM
- TGI (HS 578T breast): > 100 µM
- TGI (OVCAR-8 ovarian): > 100 µM
- TGI (OVCAR-5 ovarian): > 100 µM
- TGI (UACC-257 melanoma): > 100 µM
- TGI (MDA-N): > 100 µM
- TGI (A549 NSCLC): > 100 µM
- TGI (HOP-92 NSCLC): > 100 µM
- TGI (HCC-2998 colon): > 100 µM
- TGI (786-0 renal): > 100 µM
- TGI (OVCAR-3 ovarian): > 100 µM
- TGI (NCI-H460 lung): > 100 µM
- TGI (HT29 colon): > 100 µM
- TGI (COLO 205 colon): > 100 µM
- TGI (PC-3 prostate): > 100 µM
- TGI (SK-MEL-5 melanoma): > 100 µM
- TGI (CAKI-1 renal): > 100 µM
- TGI (HL-60(TB) leukemia): > 100 µM
- TGI (HCT-15 colon): > 100 µM
- TGI (NCI-H226 lung): > 100 µM
- TGI (SF-268 CNS): > 100 µM
- TGI (SNB-75 CNS): > 100 µM
- TGI (OVCAR-4 ovarian): > 100 µM
- TGI (SK-MEL-28 melanoma): > 100 µM
- TGI (K-562 leukemia): > 100 µM
- TGI (SF-539 CNS): > 100 µM
- TGI (MOLT-4 leukemia): > 100 µM
- TGI (HCT-116 colon): > 100 µM
- TGI (SW-620 colon): > 100 µM
- TGI (SK-MEL-2 melanoma): > 100 µM
- TGI (ACHN renal): > 100 µM
- TGI (SK-OV-3 ovarian): > 100 µM
- TGI (MDA-MB-231 breast): > 100 µM
- TGI (BT-549 breast): > 100 µM
- TGI (RXF 393 renal): > 100 µM
- TGI (SF-295 CNS): > 100 µM
- TGI (DU-145 prostate): > 100 µM
- TGI (MDA-MB-435): > 100 µM
- TGI (UACC-62 melanoma): > 100 µM
- TGI (SNB-19 CNS): > 100 µM

Structure (SMILES): N#Cc1c(-c2ccc([N+](=O)[O-])cc2)c2c([nH]c1=O)-c1ccccc1CCC2
- TGI (SR leukemia): > 100 µM
- TGI (LOX IMVI melanoma): > 100 µM
- TGI (T-47D breast): 70.5 µM
- TGI (RPMI-8226 leukemia): > 100 µM
- TGI (IGROV1 ovarian): > 100 µM
- TGI (NCI/ADR-RES ovarian): > 100 µM
- TGI (MCF7 breast): > 100 µM
- TGI (SN12C renal): > 100 µM
- TGI (U251 CNS): > 100 µM
- TGI (UO-31 renal): > 100 µM
- TGI (A498 renal): > 100 µM
- TGI (KM12 colon): > 100 µM
- TGI (M14 melanoma): > 100 µM
- TGI (NCI-H23 lung): > 100 µM
- TGI (HS 578T breast): > 100 µM
- TGI (OVCAR-8 ovarian): > 100 µM
- TGI (OVCAR-5 ovarian): > 100 µM
- TGI (UACC-257 melanoma): > 100 µM
- TGI (MDA-N): > 100 µM
- TGI (A549 NSCLC): > 100 µM
- TGI (HOP-92 NSCLC): 48.4 µM
- TGI (HCC-2998 colon): 71.1 µM
- TGI (786-0 renal): > 100 µM
- TGI (OVCAR-3 ovarian): > 100 µM
- TGI (NCI-H460 lung): > 100 µM
- TGI (HT29 colon): > 100 µM
- TGI (COLO 205 colon): > 100 µM
- TGI (EKVX NSCLC): > 100 µM
- TGI (HOP-62 NSCLC): > 100 µM
- TGI (PC-3 prostate): > 100 µM
- TGI (SK-MEL-5 melanoma): > 100 µM
- TGI (CAKI-1 renal): > 100 µM
- TGI (HL-60(TB) leukemia): > 100 µM
- TGI (HCT-15 colon): > 100 µM
- TGI (NCI-H522 lung): > 100 µM
- TGI (NCI-H226 lung): 96.2 µM
- TGI (TK-10 renal): > 100 µM
- TGI (SF-268 CNS): > 100 µM
- TGI (OVCAR-4 ovarian): > 100 µM
- TGI (SK-MEL-28 melanoma): > 100 µM
- TGI (K-562 leukemia): > 100 µM
- TGI (SF-539 CNS): > 100 µM
- TGI (MALME-3M melanoma): > 100 µM
- TGI (MOLT-4 leukemia): > 100 µM
- TGI (HCT-116 colon): > 100 µM
- TGI (SW-620 colon): > 100 µM
- TGI (SK-MEL-2 melanoma): > 100 µM
- TGI (ACHN renal): > 100 µM
- TGI (SK-OV-3 ovarian): > 100 µM
- TGI (MDA-MB-231 breast): > 100 µM
- TGI (BT-549 breast): 85.9 µM
- TGI (RXF 393 renal): 73.8 µM
- TGI (SF-295 CNS): > 100 µM
- TGI (DU-145 prostate): > 100 µM
- TGI (MDA-MB-435): > 100 µM
- TGI (UACC-62 melanoma): > 100 µM
- TGI (SNB-19 CNS): > 100 µM
